Publication PMC6530361, “Anti-tumor Efficacy Assessment of the Sigma Receptor Pan Modulator RC-106. A Promising Therapeutic Tool for Pancreatic Cancer” (Frontiers in Pharmacology, 2019)

Experiments:
S2R = tested on: S2R; parameters: method as in Rui et al., 2016; Rossi et al., 2017; conditions: ref Rui et al., 2016; Rossi et al., 2017; cited from earlier work
[1] = In vivo pharmacokinetic study, plasma; parameters: species or system male CD-1 mice; conditions: mice
Method: The experiments were performed in agreement with the Italian Law D. L.vo 4 marzo 2014, n. 26. The treatments involved male CD-1 mice and a unique number on the tail identified each animal. Mice were housed, in groups of four, in cages suitable for the species. After 5 days of adaptation to the local housing conditions, animals were housed in a single, exclusive, air-conditioned room to provide a minimum of 15 air changes/hour. The environmental controls were set to maintain the temperature at around 22°C and the relative humidity within the range 50 to 60%, along with an approximate 12:12 h light/dark cycle automatically controlled. Food (Mucedola Standard GLP diet) and water were available ad libitum throughout the entire duration of the study. All animals were weighted on the day of the treatment.
Mice (n = 4/time point) received an intraperitoneal administration (i.p., 10 mL/kg) of RC-106 at 10 mg/kg. CD-1 male mice were exsanguinated under anesthesia (isoflurane) from the aorta at the following time points: 5, 10, 30, 120, 240, and 480 min. Blood samples were collected in tubes containing heparin, gently mixed and immediately placed on ice. Afterward, they have been centrifuged (3500 × g, at 4°C for 15 min), the obtained plasma has been collected and transferred to individually labeled tubes and frozen at -20°C until the analysis. Plasma samples were used for quantification of RC-106. Pancreas was taken by surgical resection after 20 min from the last treatment, washed in saline, dried on paper, weighted and frozen at -20°C. The organ was homogenized using a Velp OV5 homogenizer with 20 mM ammonium formiate buffer in a ratio of 1 g of tissue per 10 mL of buffer.
20 mg/mL stock solution (s.s.) of RC-106 was prepared by dissolving the compound in DMSO. 1 mL of 5% Tween80 in H2O was slowly added to 500 μL of s.s. under stirring. Then 8.5 mL of water was gently spiked to obtain the 1 mg/mL formulation of RC-106.
Standard curves of RC-106 were prepared for plasma and pancreas homogenate, and analyzed together with each QC and unknown sample set. For the PK and pancreas distribution sample analysis, plasma and pancreas homogenate samples (50 μL) were spiked in 200 μL of IS in MeOH (0.1 μg/mL of RC-33), followed by 2 min vortex mixing. Samples were centrifuged and transferred in UFLC vials. 5 μL aliquots of the collected samples were injected into the LC-MS/MS system. Standard calibration graphs were constructed by linear least-squares regression analysis on the analyte/IS area ratio plotted against sample concentration. Calibration ranges were from 5 to 1000 ng/mL for plasma, and from 5 to 500 ng/mL for pancreas homogenate. Accuracy values were determined in triplicates at three different concentrations (high, medium, and low) in the range of linearity of the calibration curves.
Analyses were acquired on a Shimadzu AC20 UFLC system interfaced with an API 3200 Triple Quadrupole detector (AB Sciex). Data acquisition and control were performed using the Analyst^TM 6.1 (Applied Biosystems) Software. A Phenomenex Gemini-NX C18 (50 mm × 2 mm, 5 μm) column was selected to carry out the analytical evaluations. A gradient method was set up (Supplementary Table S1) and it provided the employment of water and methanol, both containing 0.1% of formic acid, at a flow rate of 0.3 mL/min. The LC eluate was directly introduced into the MS interface using the ESI in the positive ion mode. The MRM transitions m/z 181.2 were tracked (Supplementary Table S2).

Capan-1 = test: TUNEL assay; format: cell-based; conditions: Capan-1, RC-106 50 μM, 48 h
Method: (§1) TUNEL assay was performed as previously described ([Tesei et al., 2007]). Briefly, cells were fixed in 1% formaldehyde in PBS on ice for 15 min, suspended in 70% ice cold ethanol and stored overnight at […]. Cells were then washed twice in PBS and re-suspended in PBS containing 0.1% Triton X-100 for 5 min at […]. Thereafter, samples were incubated in 50 μL of solution containing TdT and FITC conjugated dUTP deoxynucleotides 1:1 (Roche Diagnostic GmbH, Mannheim, Germany) in a humidified atmosphere for 90 min at 37°C in the dark, washed in PBS, counterstained with propidium iodide (2.5 μg/mL, MP Biomedicals, Verona, Italy) and RNAse (10 kU/mL, Sigma–Aldrich) for 30 min at […] in the dark and analyzed by flow cytometry. Flow cytometric analysis was performed using a FACS Canto flow cytometer (Becton Dickinson, San Diego, CA, United States). Data acquisition and analysis were performed using FACSDiva software (Becton Dickinson). Samples were run in triplicate and 10,000 events were collected for each replicate.

Panc-1 = test: TUNEL assay; format: cell-based; conditions: Panc-1, RC-106 50 μM, 48 h
Method: as §1

[2] = tested on: proteasome activity of PANC-1, Capan-1, and Capan-2; test: Proteasome activity assay, all cell lines; format: cell-based; conditions: 20–100 μM, 24 h, all PC cell lines
Method: Cells were seeded in 6-well plates at density of 250 × 10^3 cells/well. Cells were treated with increasing concentration of RC-106 and after 24 h total protein extracts were obtained: cells were washed 2 times with PBS and lysed with 100 μL of lysis buffer (Hepes 5 mM pH 7.5, NaCl 150 mM, Glycerol 10%, Triton X100 1%, MgCl2 1.5 mM, EGTA 5 mM). Protein concentration of samples was quantified using Bradford method. Proteasome activity was quantified as described below. Proteasome solution was composed by 40 μg of proteins, 10 μL of 10X proteasome buffer (Hepes pH 7.5 250 mM, EDTA pH 8.0 5 mM, NP-40 0.5%, SDS 0.01%) and 10 μL of 10 mM proteasome substrate (N-Succinyl-Leu-Leu-Val-Tyr-7-Amido-4-Methylcoumarin, 7.6 mg/mL; Sigma-Aldrich, United States). 100 μL of proteasome solution was loaded in wells of a black 96-well plate. The plate was then incubated at 37°C for 2 h and the fluorescence was measured in a microplate reader (excitation 380 nm, emission 460 nm; BMG-Labtech, Germany).

[3] = male, CD-1, mouse, plasma, ip, 10 mg/kg

Cmax [1, 3]: 973 ng/mL | AUC(0-t) ([1]; male, CD-1, mouse, plasma, ip, 10 mg/kg, i.p., 10 mg/kg, read-out: AUC0-t, plasma (converted)): 1130 ng·h/mL | concentration at 5 min ([1]; male, CD-1, mouse, plasma, ip, 5 min after i.p. 10 mg/kg, read-out: plasma C): 973 ng/mL | concentration at 10 min ([1]; male, CD-1, mouse, plasma, ip, 10 min after i.p. 10 mg/kg, read-out: plasma C): 884 ng/mL | concentration at 30 min ([1]; male, CD-1, mouse, plasma, ip, 30 min after i.p. 10 mg/kg, read-out: plasma C): 361 ng/mL | concentration at 120 min ([1]; male, CD-1, mouse, plasma, ip, 120 min after i.p. 10 mg/kg, read-out: plasma C): 134 ng/mL | concentration at 240 min ([1]; male, CD-1, mouse, plasma, ip, 240 min after i.p. 10 mg/kg, read-out: plasma C): 76 ng/mL | concentration at 480 min ([1]; male, CD-1, mouse, plasma, ip, 480 min after i.p. 10 mg/kg, read-out: plasma C): 38 ng/mL | Tmax [1, 3]: 5 min | half-life ([1]; male, CD-1, mouse, plasma, ip, i.p., 10 mg/kg, read-out: t1/2, plasma): 3.37 h | AUC0-t, plasma ([1]; i.p., 10 mg/kg): 67987 ng·min/mL | Cmax, plasma ([1]; i.p., 10 mg/kg): 973 ± 167 ng/mL
Compound: C/C(=C\CN1CCC(Cc2ccccc2)CC1)c1ccc2ccccc2c1 [RC-106, (E)-4-benzyl-1-(3-(naphthalen-2-yl)but-2-en-1-yl)piperidine]
S2R modulatory profile (S2R): S2R agonist | percentage of apoptotic cells (Capan-1): 78.55% | percentage of apoptotic cells (Panc-1): 53.25% | proteasome activity [2]: reduce proteasome activity in a dose dependent manner
